{"source": "patent US8765720B2", "about": "“Combination therapy for the treatment of multiple myeloma” (Cephalon, Inc., priority 2009, dated 2014)", "key": {"[1]": {"tested_on": "apoptosis-inducing factor (AIF)", "assay": "Immunohistochemical analysis of AIF expression in LAGκ-1B tumors", "format": "in vivo, SCID mice", "settings": "COMPOUND 1 1 mg/kg, bortezomib 0.5 mg/kg, alone or both; tumors excised post-treatment", "method": "LAGκ-1B tumors were fixed in 4% paraformaldehyde and cut into 5 μm sections. Briefly, sections were blocked with Tris-buffered saline with 0.05% Tween-20 (TBST) and 3% BSA for 1 hour at room temperature and then incubated overnight with a rabbit antibody against AIF (Sigma, St. Louis, Mo.). The sections were washed three times with TBST and treated with horse radish […] anti-rabbit antibody (KPL, Gaithersburg, Md.) diluted 1:500 in TBST at room temperature for 2 hours. The slides were washed three times in TBST and placed in 3-amino-9-ethylcarbazole (AEC) buffer for 5 minutes, and color was detected using an AEC kit (Dako, Glostrup, Denmark). Staining was documented using an Olympus BX51 microscope (Olympus Imaging America Inc., Center Valley, Pa.) and analyzed by Microsuite Biological Suite program (Olympus BX51)."}, "RPMI8226 cells [2]": {"tested_on": "RPMI8226 cells", "assay": "Cell viability assay (MTS assay), RPMI8226 cells", "format": "cell-based, human", "settings": "RPMI8226, 48 hours", "method": "Combination indices (CIs) were calculated separately for each combination. […] CIs between 0.9 and 1.1 were considered to indicate additive drug effects (31)."}, "[3]": {"tested_on": "normal peripheral blood mononuclear cells (PBMCs)", "assay": "in vitro", "text": "(§1) The human myeloma cell line RPMI8226 was obtained from American Type Culture Collection (Rockville, Md.). The MM1S myeloma cell line was provided by Dr. Steven Rosen (Northwestern University, Chicago, Ill.). Normal peripheral blood mononuclear cells (PBMCs) were isolated by Histopaque® density gradient centrifugation, according to the manufacturer's protocol (Sigma-Aldrich, St. Louis, Mo.). Myeloma cell lines and PBMCs were maintained in RPMI 1640 (Omega Scientific, Tarzana, Calif.) supplemented with 10% fetal bovine serum, 2 mM L-glutamine, 100 IU/mL penicillin, 100 μg/mL streptomycin, and essential amino acids in an atmosphere of 5% carbon dioxide (CO2) at 37° C.\n(§2) Cells were seeded at 10^5 cells/100 μL/well in 96-well plates and incubated for 24 hours. RPMI8226 and MM1S cells were cultured in the presence of vehicle, COMPOUND 1, bortezomib, melphalan, COMPOUND 1+bortezomib, or COMPOUND 1+melphalan for 48 hours. After the incubation period, cell viability was quantified using the CellTiter 96® AQueous Non-Radioactive Cell Proliferation Assay (Promega, Madison, Wis.). Each well was treated with MTS (3-(4,5-dimethylthiazol-2-yl)-5-(3-carboxymethoxyphenyl)-2-(4-sulfophenyl)-2H-tetrazolium, inner salt) for 1 to 4 hours, after which absorbance was recorded at 490 nm. The quantity of formazan product as measured by absorbance at 490 nm is directly proportional to the number of living cells in culture.\n(§3) In order for therapy with two or more PIs to be feasible in vivo, the combination must spare non-neoplastic cells. […] A healthy donor's PBMCs were cultured for 48 hours in the presence of COMPOUND 1 alone, bortezomib alone, or both agents together, and cell viability was quantified by MTS assay."}, "in vitro": {"assay": "in vitro", "settings": "human", "text": "as §1, §2, §3"}, "MM1S cells": {"tested_on": "MM1S cells", "assay": "Cell viability assay (MTS assay), MM1S cells", "format": "cell-based, human", "settings": "48 hours", "method": "In vitro synergy between COMPOUND 1 and bortezomib or melphalan was assessed using the median effect method of Chou and Talalay (30). Combination indices (CIs) were calculated separately for each combination. […] CIs between 0.9 and 1.1 were considered to indicate additive drug effects (31)."}, "RPMI8226 cells [4]": {"tested_on": "RPMI8226 cells", "assay": "Apoptotic assay by annexin V and propidium iodide staining", "format": "cell-based, human", "settings": "2.5 nM for each drug, 30 hours", "method": "To quantify apoptosis in response to drug treatment, RPMI8226 cells (5×10^5 cells per well) were incubated with vehicle or PIs at 37° C. and 5% CO2 for 30 hours. As a positive control, cells were incubated with 250 ng/mL of actinomycin D for 24 or 48 hours. Cells were then washed twice with phosphate-buffered saline, resuspended in binding buffer (100 mM HEPES/NaOH, pH 7.5 containing 1.4 M NaCl and 25 mM CaCl2), and stained with fluorescein isothiocyanate (FITC)-conjugated annexin V and with the fluorescent dye propidium iodide (PrI), according to the manufacturer's protocol (BioVision, Mountain View, Calif.). For each drug treatment, 1×10^5 gated events were recorded. Cells negative for both PI and annexin V staining were considered live; annexin V-positive, PrI-negative cells were considered early apoptotic; annexin V-positive, PrI-positive cells were considered late apoptotic. Flow cytometric analyses were performed using a Beckman Coulter FC500 cytometer with Cytomics CXP software (Beckman Coulter, Fullerton, Calif.)."}}, "data": [{"smiles": "CC(C)C[C@H](NC(=O)[C@@H](NC(=O)c1cccc(-c2ccccc2)n1)[C@@H](C)O)B(O)O", "note": "[COMPOUND 1, [(1R)-1-[[(2S,3R)-3-hydroxy-2-[6-phenyl-pyridine-2-carbonyl)amino]-1-oxobutyl]amino]-3-methylbutylboronic acid]", "values": [{"measurement": "AIF expression vs vehicle-treated tumors", "setting": "[1]", "result": "elevated AIF expression"}, {"measurement": "IC50", "setting": "RPMI8226 cells [2]; Homo sapiens, RPMI-8226", "result": 8.5, "unit": "nM"}, {"measurement": "cytotoxicity at 0.009 µM", "setting": "RPMI8226 cells [2]; Homo sapiens, RPMI-8226, single-agent COMPOUND 1 9.0 nM, read-out: decrease in cell viability", "result": 64, "unit": "%"}, {"measurement": "inhibition of viability", "setting": "RPMI8226 cells [2]; COMPOUND 1 0.1-10 nM", "result": "concentration-dependent inhibition of viability"}, {"measurement": "cytotoxic effects on normal PBMCs", "setting": "[3]", "result": "negligible cytotoxic effects"}, {"measurement": "viability at 48 h, 0.009 µM", "setting": "in vitro", "result": "~75", "unit": "%"}, {"measurement": "inhibition of viability", "setting": "MM1S cells; COMPOUND 1 0.1-10 nM", "result": "concentration-dependent inhibition of viability"}, {"measurement": "cytotoxicity at 0.00175 µM", "setting": "MM1S cells; Homo sapiens, MM1.S, single-agent COMPOUND 1 1.75 nM, read-out: inhibition of cell viability", "result": "~16", "unit": "%"}, {"measurement": "proportion of cells in early apoptosis (PrI−/Annexin V+)", "setting": "RPMI8226 cells [4]", "result": "10.4 % of cells"}]}]}
